For this assay, the system named is P388 leukemia ip, CD2F1 mice, survival T/C. In words: NCI In Vivo Anticancer Drug Screen. Data for tumor model P388 Leukemia (intraperitoneal) in CD2F1 (CDF1) mice. To be noted: endpoint: median survival time, higher = longer survival. In short, it runs like this:
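Mice carrying the transplanted tumor received test compound or vehicle. Survival was recorded in each group, and the value is the treated-group measurement divided by that of the vehicle-treated control group.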

Where [1] appears, read: dose: 50.0 mg/kg/injection, schedule: Q01DX005 (ip), vehicle: saline with Tween-80.
Setting [2] is: dose: 100.0 mg/kg/injection, schedule: Q01DX005 (ip), vehicle: saline with Tween-80.
Where [3] appears, read: dose: 200.0 mg/kg/injection, schedule: Q01DX005 (ip), vehicle: saline with Tween-80.
The mark [4] stands for this setting: dose: 50.0 mg/kg/injection, schedule: Q01DX009 (ip), vehicle: saline with Tween-80.
[5] abbreviates: dose: 100.0 mg/kg/injection, schedule: Q01DX009 (ip), vehicle: saline with Tween-80.

Molecules are shown by their SMILES. Values joined by “and” are separate entries in the source; they are usually repeats but may differ in a detail not shown here. Equal entries are not always repeated. Inconclusive results and toxic doses are left out.

Turning to `COc1ccc(N2c3ccccc3-c3cc[nH]c(=O)c3[C@H]2O)cc1OC`, the T/C reads like this: (dose: 18.75 mg/kg/injection, schedule: Q01DX001 (ip), vehicle: Klucel (hydroxypropylcellulose) (HPC)) 101 % of control; (dose: 18.75 mg/kg/injection, schedule: Q04DX002 (ip), vehicle: Klucel (hydroxypropylcellulose) (HPC)) 99 % of control; (dose: 18.75 mg/kg/injection, schedule: Q04DX003 (ip), vehicle: Klucel (hydroxypropylcellulose) (HPC)) 112 % of control; (dose: 37.5 mg/kg/injection, schedule: Q01DX001 (ip), vehicle: Klucel (hydroxypropylcellulose) (HPC)) 100 % of control; (dose: 37.5 mg/kg/injection, schedule: Q04DX002 (ip), vehicle: Klucel (hydroxypropylcellulose) (HPC)) 110 % of control; (dose: 37.5 mg/kg/injection, schedule: Q04DX003 (ip), vehicle: Klucel (hydroxypropylcellulose) (HPC)) 96 % of control. For the same compound, the T/C (dose: 75.0 mg/kg/injection, schedule: Q01DX001 (ip), vehicle: Klucel (hydroxypropylcellulose) (HPC)) was 103 % of control; the T/C (dose: 75.0 mg/kg/injection, schedule: Q04DX002 (ip), vehicle: Klucel (hydroxypropylcellulose) (HPC)) is 106 % of control; the T/C (dose: 75.0 mg/kg/injection, schedule: Q04DX003 (ip), vehicle: Klucel (hydroxypropylcellulose) (HPC)) is 96 % of control; the T/C (dose: 150.0 mg/kg/injection, schedule: Q01DX001 (ip), vehicle: Klucel (hydroxypropylcellulose) (HPC)) is 104 % of control; the T/C (dose: 150.0 mg/kg/injection, schedule: Q04DX002 (ip), vehicle: Klucel (hydroxypropylcellulose) (HPC)) was 101 % of control; the T/C (dose: 150.0 mg/kg/injection, schedule: Q04DX003 (ip), vehicle: Klucel (hydroxypropylcellulose) (HPC)) was 106 % of control.
For the compound `COc1cc2c(cc1C[N+](C)(C)CSc1ccccc1)-c1ccccc1CC2`, the T/C is, setting by setting: (dose: 1.25 mg/kg/injection, schedule: Q01DX005 (ip), vehicle: DMSO) 108 % of control; (dose: 2.5 mg/kg/injection, schedule: Q01DX005 (ip), vehicle: DMSO) 101 % of control; (dose: 5.0 mg/kg/injection, schedule: Q01DX005 (ip), vehicle: DMSO) 105 % of control.
As to `c1ccc(CSCCOCCOCCSCc2ccccn2)nc1`, the T/C runs as follows: (dose: 50.0 mg/kg/injection, schedule: Q01DX005 (ip), vehicle: Klucel (hydroxypropylcellulose) (HPC)) 101 % of control; (dose: 100.0 mg/kg/injection, schedule: Q01DX005 (ip), vehicle: Klucel (hydroxypropylcellulose) (HPC)) 108 % of control; (dose: 200.0 mg/kg/injection, schedule: Q01DX005 (ip), vehicle: Klucel (hydroxypropylcellulose) (HPC)) 104 % of control.
In the case of `COC1c2ccccc2CC(c2ccccc2)=NN1C(C)=O` (configuration not stated), the T/C runs as follows: (dose: 60.0 mg/kg/injection, schedule: Q01DX005 (ip), vehicle: saline) 100 % of control; (dose: 120.0 mg/kg/injection, schedule: Q01DX005 (ip), vehicle: saline) 102 % of control; (dose: 240.0 mg/kg/injection, schedule: Q01DX005 (ip), vehicle: saline) 97 % of control.
As to `COc1ccc2c(c1OC)CC(C(=O)O)=C2C`, the T/C under setting [1] is 99 % of control, the T/C under setting [2] is 94 % of control and the T/C under setting [3] is 99 % of control.
For `CC(=O)NC#N.CCN(CC)CC.[CH-]1CCCCC1.[CH-]1CCCCC1.[CH-]1CCCCC1.[Cl-].[Sn+4]`, the T/C was 106 % of control (dose: 3.12 mg/kg/injection, schedule: Q01DX005 (ip), vehicle: saline with Tween-80) and 105 % of control (dose: 6.25 mg/kg/injection, schedule: Q01DX005 (ip), vehicle: saline with Tween-80).
With `COc1cc(C)c2nc3c(C)c(Cl)ccc3c(Cl)c2c1`, the T/C runs as follows: (dose: 3.0 mg/kg/injection, schedule: Q01DX005 (ip), vehicle: Klucel + Tween-80) 98 % of control; (dose: 6.0 mg/kg/injection, schedule: Q01DX005 (ip), vehicle: Klucel + Tween-80) 100 % of control; (dose: 12.0 mg/kg/injection, schedule: Q01DX005 (ip), vehicle: Klucel + Tween-80) 97 % of control; (dose: 50.0 mg/kg/injection, schedule: Q01DX005 (ip), vehicle: Klucel + Tween-80) 88 % of control.
Consider `O=c1[nH]c2ccccc2n1C1CCN(CCOc2ccccc2)CC1`, for which the T/C reads like this: (dose: 50.0 mg/kg/injection, schedule: Q01DX009 (ip), vehicle: Klucel (hydroxypropylcellulose) (HPC)) 95 % of control; (dose: 100.0 mg/kg/injection, schedule: Q01DX009 (ip), vehicle: Klucel (hydroxypropylcellulose) (HPC)) 102 % of control; (dose: 200.0 mg/kg/injection, schedule: Q01DX009 (ip), vehicle: Klucel (hydroxypropylcellulose) (HPC)) 95 % of control.
As for `CN(C)C12CCCCCC1S(=O)(=O)C2` (configuration not stated), the T/C by setting is: under setting [4], 94 % of control; under setting [5], 94 % of control.
For the compound `Brc1ccc(-c2cnc3nc4[nH]c5ccccc5c4nn23)cc1`, the T/C reads like this: (dose: 12.5 mg/kg/injection, schedule: Q01DX005 (ip), vehicle: saline with Tween-80) 101 % of control; (dose: 25.0 mg/kg/injection, schedule: Q01DX005 (ip), vehicle: saline with Tween-80) 93 % of control; under setting [1], 89 % of control and 91 % of control.
For `N#CCCSC(=S)N1CCN(C(=S)SCCC#N)C1=O`, the T/C runs as follows: under setting [1], 92 % of control; under setting [2], 87 % of control; under setting [3], 92 % of control.
`CC1(C)C=Cc2c(ccc3c(=O)c(-c4ccc5c(c4)OCO5)coc23)O1`: the T/C (dose: 25.0 mg/kg/injection, schedule: Q04DX002 (ip), vehicle: saline with Tween-80) was 107 % of control; the T/C (dose: 50.0 mg/kg/injection, schedule: Q04DX002 (ip), vehicle: saline with Tween-80) is 101 % of control; the T/C (dose: 100.0 mg/kg/injection, schedule: Q04DX002 (ip), vehicle: saline with Tween-80) was 99 % of control and 108 % of control.
Take `NC(CSSCC(N)C(=O)NCC(=O)O)C(=O)NCC(=O)O` (configuration not stated): the T/C was 106 % of control (dose: 50.0 mg/kg/injection, schedule: Q01DX005 (ip), vehicle: saline); 100 % of control (dose: 100.0 mg/kg/injection, schedule: Q01DX005 (ip), vehicle: saline); 104 % of control (dose: 200.0 mg/kg/injection, schedule: Q01DX005 (ip), vehicle: saline).
Consider `Cc1cccc(NC(=O)Nc2cccc(S(N)(=O)=O)c2)c1C`, for which the T/C is 104 % of control under setting [4]; 90 % of control under setting [5]; 90 % of control (dose: 200.0 mg/kg/injection, schedule: Q01DX009 (ip), vehicle: saline with Tween-80).
Regarding `O=[N+]([O-])c1ccccc1Sc1cccc(Sc2ccccc2[N+](=O)[O-])n1`, the T/C by setting is: (dose: 60.0 mg/kg/injection, schedule: Q01DX005 (ip), vehicle: saline with Tween-80) 100 % of control; (dose: 120.0 mg/kg/injection, schedule: Q01DX005 (ip), vehicle: saline with Tween-80) 105 % of control; (dose: 240.0 mg/kg/injection, schedule: Q01DX005 (ip), vehicle: saline with Tween-80) 102 % of control.
For `CCCCCCN(CCCCCC)c1nc(Cl)nc(NCC)n1`, the T/C was 111 % of control under setting [1], 103 % of control under setting [2] and 103 % of control under setting [3].
As to `N#CCCn1nc(SCc2ccccc2)c(=S)[nH]c1=O`, the T/C is 95 % of control under setting [1], 98 % of control under setting [2] and 100 % of control under setting [3].
As for `O=C(CCl)NC(Cc1ccc(N(CCCl)CCCl)cc1)C(=O)O` (configuration not stated), the T/C was 113 % of control and 96 % of control (dose: 0.25 mg/kg/injection, schedule: Q01DX009 (ip), vehicle: Klucel (hydroxypropylcellulose) (HPC)); 109 % of control and 115 % of control (dose: 0.5 mg/kg/injection, schedule: Q01DX009 (ip), vehicle: Klucel (hydroxypropylcellulose) (HPC)); 102 % of control and 115 % of control (dose: 1.0 mg/kg/injection, schedule: Q01DX009 (ip), vehicle: Klucel (hydroxypropylcellulose) (HPC)); 107 % of control (dose: 2.0 mg/kg/injection, schedule: Q01DX001 (ip), vehicle: Klucel (hydroxypropylcellulose) (HPC)); 108 % of control (dose: 4.0 mg/kg/injection, schedule: Q01DX001 (ip), vehicle: Klucel (hydroxypropylcellulose) (HPC)); 119 % of control (dose: 8.0 mg/kg/injection, schedule: Q01DX001 (ip), vehicle: Klucel (hydroxypropylcellulose) (HPC)). The T/C (dose: 128.0 mg/kg/injection, schedule: Q01DX009 (ip), vehicle: Klucel (hydroxypropylcellulose) (HPC)) was 166 % of control and the T/C (dose: 256.0 mg/kg/injection, schedule: Q01DX009 (ip), vehicle: Klucel (hydroxypropylcellulose) (HPC)) was 223 % of control.

The values are drawn from PubChem BioAssay AID330 (DTP/NCI, 2004).
